Assays:
[1] = system: eggs of Harmonia axyridis; experiment: Effect on hatching of eggs of Harmonia axyridis, egg card immersion; type: in vivo; conditions: 100 ppm; for Number of hatched larvae 4 days after insecticide delivery, Replicate 1 / Number of hatched larvae 4 days after insecticide delivery, Replicate 2 / Number of hatched larvae 4 days after insecticide delivery, Replicate 3: Harmonia axyridis egg cards, immersed 30 seconds; for Hatching rate (%), Replicate 1 / Hatching rate (%), Replicate 2 / Hatching rate (%), Replicate 3: Harmonia axyridis eggs, 4 days after delivery
Description: The eggs of Harmonia axyridis cards (with approximately 20 eggs per card) were purchased from Henan Jiyuan Baiyun Industry Co., Ltd. in Henan Province. The number of eggs on the egg cards was counted as the basic number before insecticide delivery, and 5 cards were used as one treatment, with 3 replicates per treatment. After immersing the egg cards in a 100 ppm insecticide solution for 30 seconds, they were taken out and air dried, then cultivated under moisturizing conditions, and the […] were cultivated at 27° C. 4 days after insecticide delivery, the hatching status of eggs of Harmonia axyridis was investigated, and the prevention and control effect was calculated according to the following formula. [formula] [formula]

eggs of Aleyrodidae = experiment: Effect on hatching of eggs of Aleyrodidae, leaf disc method; type: in vivo; conditions: 10 ppm; for Hatching rate (%), Replicate 1 / Hatching rate (%), Replicate 2 / Hatching rate (%), Replicate 3 / Number of hatched larvae 5 days after insecticide delivery, Replicate 1 / Number of hatched larvae 5 days after insecticide delivery, Replicate 2 / Number of hatched larvae 5 days after insecticide delivery, Replicate 3: Aleyrodidae eggs; for Hatching rate (%), Replicate 1 / Hatching rate (%), Replicate 2 / Hatching rate (%), Replicate 3: 5 days after delivery; for Number of hatched larvae 5 days after insecticide delivery, Replicate 1 / Number of hatched larvae 5 days after insecticide delivery, Replicate 2 / Number of hatched larvae 5 days after insecticide delivery, Replicate 3: leaf disc
Experimental: • (1) Preparation of leaf discs containing eggs: 20 female adult mites of Tetranychus cinnabarinus were transferred onto leaf discs of Vicia faba with a diameter of 2.0 cm (with wetted filter paper at the bottom), then covered it with a lidded culture dish and cultivated under moisturizing conditions, the adult mites were removed within 36 hours and microscopic examination and counting were performed on leaf discs containing eggs. • (2) Investigation of egg population base: Before pesticide soaking, a microscopic examination was conducted on the egg basic number of each leaf disc, with 2 replicates set for each treatment. • (3) Pesticide soaking treatment: The leaf butterflies loaded with mite eggs were soaked in clear water and sulfite compounds for 10 seconds, respectively, then taken out and cultivated under moisturizing conditions. Each treatment should be repeated for no less than 3 times. • (4) Cultivation and observation: The […] were cultivated under normal conditions. Five days after insecticide delivery, the hatching status of mite eggs was investigated. • Note: The temperature and humidity conditions of the constant temperature and humidity incubator after the treatment should be controlled so as to avoid excessive temperature differences, which may cause generation and dripping of condensate water in the culture dish, resulting in abnormal death of eggs due to soaking in water; it is also necessary to ensure sufficient strong ambient light, without directing irradiating the leaves. • (5) Survey of Results: The experimental materials of each treatment group were regularly hydrated and moisturized, and the hatching of eggs was observed. On the 7th day after insecticide delivery, the number of hatched eggs for each treatment was recorded, and the survey of results was recorded in the original notebook. According to the experimental requirements and characteristics of agents, the survey time can be shortened or extended.
• 1) Surveying and recording the number of hatched eggs for each treatment. • 2) Photographing and recording whether there was any pesticide damage to the leaf discs of Vicia faba. • 3) Recording the developmental status of experimental mite eggs, behavior status of nymph mites, including abnormal phenomena such as delayed or stopped development of mite eggs, difficulty in breaking hull for nymph mites, or painful struggles after hatching, etc. • (6) Calculation method: Based on the survey data, the prevention and control effect of each treatment was calculated according to the following formula, and the calculation results were kept to two decimal places.
This test adopted the method in Test Example 1 of technical section, mainly used leaf disc method to explore the inhibitory effect on hatching of eggs of Aleyrodidae by compounds 1-(S,S), 1-(S,R), 1-(R,R), 1-(R,S), 1′-(S,S), 1′-(S,R), 1′-(R,R), 1′-(R,S), compound 1, compound 1′, S-10, R-10, S-10′, R-10′, compound 10, compound 10′, compound 19-(S,S), 19-(S,R), 19-(R,R), 19-(R,S), 19′-(S,S), 19′-(S,R), 19′-(R,R), 19′-(R,S), compound 19, and compound 19′. The concentration of all compounds was 10 ppm.

CC(COc1ccc(Cl)cc1Cl)OS(=O)OCCF [1′-(S,S)]
Number of hatched larvae 4 days after insecticide delivery, Replicate 1 ([1]; listed as 1′-(S, S)): 18
Number of hatched larvae 4 days after insecticide delivery, Replicate 2 ([1]; listed as 1′-(S, S)): 19
Number of hatched larvae 4 days after insecticide delivery, Replicate 3 ([1]; listed as 1′-(S, S)): 21
Hatching rate (%), Replicate 1 ([1]; listed as 1′-(S, S)): 19.57%
Hatching rate (%), Replicate 2 ([1]; listed as 1′-(S, S)): 19.39%
Hatching rate (%), Replicate 3 ([1]; listed as 1′-(S, S)): 18.69%
Hatching rate (%), Replicate 1 (eggs of Aleyrodidae; listed as 1′-(S, S)): 15.15%
Hatching rate (%), Replicate 2 (eggs of Aleyrodidae; listed as 1′-(S, S)): 16.19%
Hatching rate (%), Replicate 3 (eggs of Aleyrodidae; listed as 1′-(S, S)): 15.38%
Number of hatched larvae 5 days after insecticide delivery, Replicate 1 (eggs of Aleyrodidae; listed as 1′-(S, S)): 20
Number of hatched larvae 5 days after insecticide delivery, Replicate 2 (eggs of Aleyrodidae; listed as 1′-(S, S)): 17
Number of hatched larvae 5 days after insecticide delivery, Replicate 3 (eggs of Aleyrodidae; listed as 1′-(S, S)): 12

CC(COc1ccc(Cl)cc1Cl)OS(=O)OCCF [1′-(S,R)]
inhibitory activity on the hatching of eggs of Harmonia axyridis (in words) [1]: strong inhibitory activities
Number of hatched larvae 4 days after insecticide delivery, Replicate 1 ([1]; listed as 1′-(S, R)): 0
Number of hatched larvae 4 days after insecticide delivery, Replicate 2 ([1]; listed as 1′-(S, R)): 0
Number of hatched larvae 4 days after insecticide delivery, Replicate 3 ([1]; listed as 1′-(S, R)): 0
Hatching rate (%), Replicate 1 ([1]; listed as 1′-(S, R)): 0.00%
Hatching rate (%), Replicate 2 ([1]; listed as 1′-(S, R)): 0.00%
Hatching rate (%), Replicate 3 ([1]; listed as 1′-(S, R)): 0.00%
inhibitory activity on the hatching of eggs of Aleyrodidae (in words) (eggs of Aleyrodidae): strong inhibitory activities
Hatching rate (%), Replicate 1 (eggs of Aleyrodidae; listed as 1′-(S, R)): 0.00%
Hatching rate (%), Replicate 2 (eggs of Aleyrodidae; listed as 1′-(S, R)): 0.00%
Hatching rate (%), Replicate 3 (eggs of Aleyrodidae; listed as 1′-(S, R)): 0.00%
Number of hatched larvae 5 days after insecticide delivery, Replicate 1 (eggs of Aleyrodidae; listed as 1′-(S, R)): 0
Number of hatched larvae 5 days after insecticide delivery, Replicate 2 (eggs of Aleyrodidae; listed as 1′-(S, R)): 0
Number of hatched larvae 5 days after insecticide delivery, Replicate 3 (eggs of Aleyrodidae; listed as 1′-(S, R)): 0

CC(C)(COS(=O)OCCF)Oc1ccc(Cl)cc1Cl (centres unmarked) [R-10′]
Number of hatched larvae 4 days after insecticide delivery, Replicate 1 [1]: 17
Number of hatched larvae 4 days after insecticide delivery, Replicate 2 [1]: 14
Number of hatched larvae 4 days after insecticide delivery, Replicate 3 [1]: 12
Hatching rate (%), Replicate 1 [1]: 12.78%
Hatching rate (%), Replicate 2 [1]: 13.73%
Hatching rate (%), Replicate 3 [1]: 12.77%
Hatching rate (%), Replicate 1 (eggs of Aleyrodidae): 9.77%
Hatching rate (%), Replicate 2 (eggs of Aleyrodidae): 10.23%
Hatching rate (%), Replicate 3 (eggs of Aleyrodidae): 10.16%
Number of hatched larvae 5 days after insecticide delivery, Replicate 1 (eggs of Aleyrodidae): 13
Number of hatched larvae 5 days after insecticide delivery, Replicate 2 (eggs of Aleyrodidae): 9
Number of hatched larvae 5 days after insecticide delivery, Replicate 3 (eggs of Aleyrodidae): 13

CC[C@@H](COS(=O)OCCF)Oc1ccc(Cl)cc1Cl (stereo partly drawn) [19′-(S,S)]
inhibitory activity on the hatching of eggs of Harmonia axyridis (in words) [1]: strong inhibitory activities
Number of hatched larvae 4 days after insecticide delivery, Replicate 1 ([1]; listed as 19′-(S, S)): 0
Number of hatched larvae 4 days after insecticide delivery, Replicate 2 ([1]; listed as 19′-(S, S)): 0
Number of hatched larvae 4 days after insecticide delivery, Replicate 3 ([1]; listed as 19′-(S, S)): 0
Hatching rate (%), Replicate 1 ([1]; listed as 19′-(S, S)): 0.00%
Hatching rate (%), Replicate 2 ([1]; listed as 19′-(S, S)): 0.00%
Hatching rate (%), Replicate 3 ([1]; listed as 19′-(S, S)): 0.00%
inhibitory activity on the hatching of eggs of Aleyrodidae (in words) (eggs of Aleyrodidae): strong inhibitory activities
Hatching rate (%), Replicate 1 (eggs of Aleyrodidae; listed as 19′-(S, S)): 0.00%
Hatching rate (%), Replicate 2 (eggs of Aleyrodidae; listed as 19′-(S, S)): 0.00%
Hatching rate (%), Replicate 3 (eggs of Aleyrodidae; listed as 19′-(S, S)): 0.00%
Number of hatched larvae 5 days after insecticide delivery, Replicate 1 (eggs of Aleyrodidae; listed as 19′-(S, S)): 0
Number of hatched larvae 5 days after insecticide delivery, Replicate 2 (eggs of Aleyrodidae; listed as 19′-(S, S)): 0
Number of hatched larvae 5 days after insecticide delivery, Replicate 3 (eggs of Aleyrodidae; listed as 19′-(S, S)): 0

CCC(COS(=O)OCCF)Oc1ccc(Cl)cc1Cl (centres unmarked) [Compound 19′]
inhibitory activity on the hatching of eggs of Harmonia axyridis (in words) [1]: strong inhibitory activities
Number of hatched larvae 4 days after insecticide delivery, Replicate 1 [1]: 4
Number of hatched larvae 4 days after insecticide delivery, Replicate 2 [1]: 5
Number of hatched larvae 4 days after insecticide delivery, Replicate 3 [1]: 7
Hatching rate (%), Replicate 1 [1]: 4.49%
Hatching rate (%), Replicate 2 [1]: 5.21%
Hatching rate (%), Replicate 3 [1]: 6.48%
inhibitory activity on the hatching of eggs of Aleyrodidae (in words) (eggs of Aleyrodidae): strong inhibitory activities
Hatching rate (%), Replicate 1 (eggs of Aleyrodidae): 0.00%
Hatching rate (%), Replicate 2 (eggs of Aleyrodidae): 0.00%
Hatching rate (%), Replicate 3 (eggs of Aleyrodidae): 0.00%
Number of hatched larvae 5 days after insecticide delivery, Replicate 1 (eggs of Aleyrodidae): 0
Number of hatched larvae 5 days after insecticide delivery, Replicate 2 (eggs of Aleyrodidae): 0
Number of hatched larvae 5 days after insecticide delivery, Replicate 3 (eggs of Aleyrodidae): 0

C[C@@H](COS(=O)OCCF)Oc1ccc(Cl)cc1Cl (stereo partly drawn) [1-(S,S)]
inhibitory activity on the hatching of eggs of Harmonia axyridis (in words) [1]: strong inhibitory activities
Number of hatched larvae 4 days after insecticide delivery, Replicate 1 ([1]; listed as 1-(S, S)): 0
Number of hatched larvae 4 days after insecticide delivery, Replicate 2 ([1]; listed as 1-(S, S)): 0
Number of hatched larvae 4 days after insecticide delivery, Replicate 3 ([1]; listed as 1-(S, S)): 0
Hatching rate (%), Replicate 1 ([1]; listed as 1-(S, S)): 0.00%
Hatching rate (%), Replicate 2 ([1]; listed as 1-(S, S)): 0.00%
Hatching rate (%), Replicate 3 ([1]; listed as 1-(S, S)): 0.00%
inhibitory activity on the hatching of eggs of Aleyrodidae (in words) (eggs of Aleyrodidae): strong inhibitory activities
Hatching rate (%), Replicate 1 (eggs of Aleyrodidae; listed as 1-(S, S)): 0.00%
Hatching rate (%), Replicate 2 (eggs of Aleyrodidae; listed as 1-(S, S)): 0.00%
Hatching rate (%), Replicate 3 (eggs of Aleyrodidae; listed as 1-(S, S)): 0.00%
Number of hatched larvae 5 days after insecticide delivery, Replicate 1 (eggs of Aleyrodidae; listed as 1-(S, S)): 0
Number of hatched larvae 5 days after insecticide delivery, Replicate 2 (eggs of Aleyrodidae; listed as 1-(S, S)): 0
Number of hatched larvae 5 days after insecticide delivery, Replicate 3 (eggs of Aleyrodidae; listed as 1-(S, S)): 0

— US20260184675A1, “CHIRAL ISOMERIC SULFITE COMPOUND AND APPLICATION THEREOF” (Chengdu Hanova BioSciences Co., Ltd, priority 2024, published 2026)
